Experimental data: patent US20060241026A1, “Novel cyclic peptides and use thereof as anti-microbial agents” (priority 2002, published 2006)
In brackets after ≈: the same amount, converted by molar mass. Read-outs that look alike come from different tables or passages of the source. Positions of bridges follow the written chain, without caps; N, C: chain ends. Residues, ends and D or L forms follow the SMILES beside them. No end group written: not given here.

Tests used:
Format in all cases: cell-based
Staphylococcus aureus = tested on: Staphylococcus aureus
Method: (§1) The activity of the synthetic peptides was tested with respect to the Gram+ bacteria Mycrocossus luteus, Staphylococcus aureus, Staphylococcus epidermidis and Bacillus megaterium. The activities were determined according to the protocol described by HANCOCK et al. (http://www.interchg.ubc.ca/bobh/methods.htm)
(§2) The MIC was determined for each peptide by inhibition of growth in liquid medium. Doubling dilution of peptide was realized in the wells of a Microtest plate in a volume of 10 μl. The bacteria were grown in MUELLER HINTON BROTH (MHB, Difco) liquid medium. During the exponential growth phase, a solution with an optical density of 0.001 at 600 nm was produced, and 100 μl of this suspension were added to each well. The incubation lasted 24 h at 30° C., and the optical densities of each well were then measured at 600 nm. The value of the MIC corresponds to the first well for which the optical density had not changed.
(§3) The dishes were incubated for 24 h at 30° C. The value of the MBC corresponds to the lowest concentration of the peptide for which no colony developed.

[1] = tested on: Micrococcus lysodeikticus
Method: as §2, §3

[2] = tested on: Gram+ and Gram− bacteria and a filamentous fungus; test: Antibiotic tests on Gram+ and Gram- bacteria and on a filamentous fungus, summary in words; details: compared with the native molecule or the minimal loop
Method: as §1, §2, §3
(§4) The anti-fungal activity was determined by calculating the MIC in a growth inhibition assay for the shrimp parasite fungus Fusarium oxysporum, in liquid phase, according to the protocol described by FELHBAM et al. (J. Biol. Chem., 1994, 269:33159-63). Doubling dilutions of each peptide were realized in the wells of a Microtest plate in a volume of 10 μl. 90 μl of spores resuspended in potato dextrose broth medium (DIFCO) at a final concentration of 10^4 spores/ml were added to each well. The growth inhibition was measured after incubation for 24 h at 25° C. in the dark, by observation under an optical microscope and measurement of the increase in OD at 600 nm. The value of the MIC corresponds to the first well for which the optical density had not increased.
Using the 3-D structure of the native molecule as a basis, said molecule was fractionated into 17 elements (table I). All these fragments were synthesized and their activities were assayed using antibiotic tests on Gram+ and Gram− bacteria and on a filamentous fungus. The minimum inhibitory concentration (MIC) and minimum […] concentration (MBC) of each peptide were thus determined and were compared with those of the native molecule.

Micrococcus luteus = tested on: Micrococcus luteus
Method: as §1, §2, §3

[3] = tested on: Staphylococcus epidermidis
Method: as §1, §2, §3

Fusarium oxysporum = details: 24 h
Method: as §4

Bacillus megaterium = details: Bacillus
Method: as §1, §2, §3

N=C(N)NCCC[C@@H]1NC(=O)[C@H](CCCCN)NC(=O)[C@H](Cc2c[nH]c3ccccc23)NC(=O)[C@@H](N)CSSC[C@@H](C(=O)O)NC(=O)[C@H](CCCCN)NC1=O [SEQ ID NO:24, C^(S)WKRKC^(S)] (H-CWKRKC-OH; disulfide 1-6; N-terminus and C-terminus assumed)
Staphylococcus aureus MBC (Staphylococcus aureus; Table III): >50 µM
Staphylococcus aureus MIC (Staphylococcus aureus; Table III): >50 µM
Micrococcus lysodeikticus MIC ([1]; Table III): >50 µM
anti-microbial activity (in words) [2]: does not exhibit any significant biological activity

RLRSTSYRSG [SEQ ID NO:18, RLRSTSYRSG]
MIC on M leuteus (Micrococcus luteus; 24 h): >75 µM

N=C(N)NCCC[C@@H]1NC(=O)[C@H](CCCCN)NC(=O)[C@H](CCCNC(=N)N)NC(=O)[C@H](CCCCN)NC(=O)[C@H](Cc2c[nH]c3ccccc23)NC(=O)[C@@H](N)CSSC[C@@H](C(=O)O)NC1=O [SEQ ID NO:23, C^(S)WKRKRC^(S)] (H-CWKRKRC-OH; disulfide 1-7; N-terminus and C-terminus assumed)
Staphylococcus aureus MBC (Staphylococcus aureus; Table III): 22.2 µM
Staphylococcus aureus MIC (Staphylococcus aureus; Table III): 22.2 µM
Micrococcus lysodeikticus MIC ([1]; Table III): 22.2 µM
anti-microbial activity (in words) [2]: weaker

GFGSPNNYQSHRHSKSIPGR [SEQ ID NO:9]
MIC on M leuteus (Micrococcus luteus; 24 h): >75 µM

SGGWHRLRS [SEQ ID NO:17, SGGWHRLRS]
MIC on M leuteus (Micrococcus luteus; 24 h): >75 µM
anti-microbial activity (in words) [2]: devoid of activity

CC[C@H](C)[C@@H]1NC(=O)[C@H](CO)NC(=O)[C@H](CCCCN)NC(=O)[C@@H](NC(=O)[C@H](Cc2c[nH]cn2)NC(=O)[C@H](CCCNC(=N)N)NC(=O)[C@H](Cc2c[nH]cn2)NC(=O)[C@H](CO)NC(=O)[C@H](CCC(N)=O)NC(=O)[C@H](Cc2ccc(O)cc2)NC(=O)[C@H](CC(N)=O)NC(=O)[C@H](CC(N)=O)NC(=O)[C@@H]2CCCN2)CSSC[C@@H](C(=O)O)NC(=O)[C@H](CCCNC(=N)N)NC(=O)CNC(=O)[C@@H]2CCCN2C1=O [SEQ ID NO:11, PNNYQSHRHCKSIPGRC] (H-PNNYQSHRHCKSIPGRC-OH; disulfide 10-17; N-terminus and C-terminus assumed)
MIC on M leuteus (Micrococcus luteus; 24 h): >75 µM

N=C(N)NCCC[C@@H]1NC(=O)[C@H](CCCCN)NC(=O)[C@H](CCCNC(=N)N)NC(=O)[C@H](CCCCN)NC(=O)[C@H](Cc2c[nH]c3ccccc23)NC(=O)[C@H](CCCCN)NC(=O)[C@H](CCCCN)NC(=O)[C@@H](N)CSSC[C@@H](C(=O)O)NC1=O [SEQ ID NO:21, C^(S)KKWKRKRC^(S)] (H-CKKWKRKRC-OH; disulfide 1-9; N-terminus and C-terminus assumed)
Staphylococcus aureus MBC (Staphylococcus aureus; Table III): 9.9 µM
Staphylococcus aureus MIC (Staphylococcus aureus; Table III): 4.4 µM
Staphylococcus epidermidis MIC ([3]; Table III): 6.8 µM
Micrococcus lysodeikticus MBC ([1]; Table III): 9.9 µM
Micrococcus lysodeikticus MIC ([1]; Table III): 6 µM

N=C(N)NCCC[C@@H]1NC(=O)[C@H](CCCCN)NC(=O)[C@H](CCCNC(=N)N)NC(=O)[C@H](CCCCN)NC(=O)[C@H](Cc2c[nH]c3ccccc23)NC(=O)[C@H](CCCCN)NC(=O)[C@@H](N)CSSC[C@@H](C(=O)O)NC1=O [SEQ ID NO:22, C^(S)KWKRKRC^(S)] (H-CKWKRKRC-OH; disulfide 1-8; N-terminus and C-terminus assumed)
Staphylococcus aureus MBC (Staphylococcus aureus; Table III): 14.8 µM
Staphylococcus aureus MIC (Staphylococcus aureus; Table III): 6.6 µM
Micrococcus lysodeikticus MBC ([1]; Table III): 14.8 µM
Micrococcus lysodeikticus MIC ([1]; Table III): 14.8 µM

CC(C)C[C@@H]1NC(=O)[C@H](CCCNC(=N)N)NC(=O)[C@H](CCCCN)NC(=O)[C@H](Cc2c[nH]c3ccccc23)NC(=O)CNC(=O)CNC(=O)[C@@H](N)CSSC[C@@H](C(=O)O)NC(=O)[C@H](CCCNC(=N)N)NC1=O [SEQ ID NO:19, C^(S)GGWKRLRC^(S)] (H-CGGWKRLRC-OH; disulfide 1-9; N-terminus and C-terminus assumed)
Staphylococcus aureus MBC (Staphylococcus aureus): 20 µM
Staphylococcus aureus MIC (Staphylococcus aureus): 33 µM
Micrococcus lysodeikticus MIC [1]: 13 µM

CC(C)C[C@@H]1NC(=O)[C@H](CCCNC(=N)N)NC(=O)[C@H](Cc2c[nH]cn2)NC(=O)[C@H](Cc2c[nH]c3ccccc23)NC(=O)CNC(=O)CNC(=O)[C@H](CO)NC(=O)[C@H](Cc2ccc(O)cc2)NC(=O)CNC(=O)CNC(=O)[C@@H](N)CSSC[C@@H](C(=O)NCC(=O)O)NC(=O)[C@H](CCCNC(=N)N)NC(=O)[C@H](Cc2ccc(O)cc2)NC(=O)[C@H](CO)NC(=O)[C@H]([C@@H](C)O)NC(=O)[C@H](CO)NC(=O)[C@H](CCCNC(=N)N)NC1=O [SEQ ID NO:5, C^(S)GGYSGGWHRLRSTSYRC^(S)G] (H-CGGYSGGWHRLRSTSYRCG-OH; disulfide 1-18; N-terminus and C-terminus assumed)
Fusarium oxysporum MIC (Fusarium oxysporum): 18.5 µM
Staphylococcus aureus MBC (Staphylococcus aureus): >75 µM
Staphylococcus aureus MIC (Staphylococcus aureus): 14 µM
Staphylococcus epidermidis MBC [3]: >75 µM
Staphylococcus epidermidis MIC [3]: 35 µM
Bacillus megaterium MBC (Bacillus megaterium): 75 µM
Bacillus megaterium MIC (Bacillus megaterium): 24 µM
Micrococcus luteus MBC (Micrococcus luteus): 18 µM
Micrococcus luteus MIC (Micrococcus luteus): 18 µM
MBC on M leuteus (Micrococcus luteus; 24 h): 13 µM (≈ 27.3 µg/mL)

SKSIPGRSG [SEQ ID NO:14, SKSIPGRSG]
MIC on M leuteus (Micrococcus luteus; 24 h): >75 µM
anti-microbial activity (in words) [2]: show no activity

N=C(N)NCCC[C@@H]1NC(=O)[C@H](CCCCN)NC(=O)[C@H](CCCNC(=N)N)NC(=O)[C@H](CCCCN)NC(=O)[C@H](Cc2c[nH]c3ccccc23)NC(=O)CNC(=O)CNC(=O)[C@@H](N)CSSC[C@@H](C(=O)O)NC1=O [SEQ ID NO:20, C^(S)GGWKRKRC^(S)] (H-CGGWKRKRC-OH; disulfide 1-9; N-terminus and C-terminus assumed)
Staphylococcus aureus MBC (Staphylococcus aureus): 16 µM
Staphylococcus aureus MIC (Staphylococcus aureus): 23 µM
Micrococcus lysodeikticus MIC [1]: 8 µM

PNNYQSHRHSKSIPGRGR [SEQ ID NO:10, PNNYQSHRHSKSIPGRGR]
MIC on M leuteus (Micrococcus luteus; 24 h): >75 µM

PNNYQSHRHSKSIPGRS [SEQ ID NO:12, PNNYQSHRHSKSIPGRS]
MIC on M leuteus (Micrococcus luteus; 24 h): >75 µM

C[C@@H](O)[C@@H]1NC(=O)[C@H](CO)NC(=O)[C@H](CO)NC(=O)[C@H](Cc2ccc(O)cc2)NC(=O)CNC(=O)CNC(=O)[C@@H](N)CSSC[C@@H](C(=O)NCC(=O)O)NC(=O)[C@H](CCCNC(=N)N)NC(=O)[C@H](Cc2ccc(O)cc2)NC(=O)[C@H](CO)NC1=O [SEQ ID NO:16, CGGYSSTSYRCG] (H-CGGYSSTSYRCG-OH; disulfide 1-11; N-terminus and C-terminus assumed)
MIC on M leuteus (Micrococcus luteus; 24 h): >75 µM
anti-microbial activity (in words) [2]: do not comprise any intrinsic activity

CC(C)C[C@@H]1NC(=O)[C@H](CCCNC(=N)N)NC(=O)[C@H](Cc2c[nH]cn2)NC(=O)[C@H](Cc2c[nH]c3ccccc23)NC(=O)CNC(=O)CNC(=O)[C@@H](NC(=O)[C@H](Cc2ccc(O)cc2)NC(=O)CNC(=O)CNC(=O)[C@@H](N)CO)CSSC[C@@H](C(=O)N[C@H](C(=O)N[C@@H](CO)C(=O)N[C@@H](Cc2ccc(O)cc2)C(=O)N[C@@H](CCCNC(=N)N)C(=O)N[C@@H](CO)C(=O)NCC(=O)O)[C@@H](C)O)NC(=O)[C@H](CCCNC(=N)N)NC1=O [SEQ ID NO:6, SGGYC^(S)GGWHRLRC^(S)TSYRSG] (H-SGGYCGGWHRLRCTSYRSG-OH; disulfide 5-13; N-terminus and C-terminus assumed)
Fusarium oxysporum MIC (Fusarium oxysporum): 14 µM
Staphylococcus aureus MBC (Staphylococcus aureus): 75 µM
Staphylococcus aureus MIC (Staphylococcus aureus): 19 µM
Staphylococcus epidermidis MBC [3]: >75 µM
Staphylococcus epidermidis MIC [3]: 24 µM
Bacillus megaterium MBC (Bacillus megaterium): >75 µM
Bacillus megaterium MIC (Bacillus megaterium): 25 µM
Micrococcus luteus MBC (Micrococcus luteus): >75 µM
Micrococcus luteus MIC (Micrococcus luteus): 29 µM
MIC on M leuteus (Micrococcus luteus; 24 h): 32 µM (≈ 67.2 µg/mL)

NYQSHRHSKS [SEQ ID NO:13, NYQSHRHSKS]
MIC on M leuteus (Micrococcus luteus; 24 h): >75 µM

CC[C@H](C)[C@@H]1NC(=O)[C@H](CO)NC(=O)[C@H](CCCCN)NC(=O)[C@@H](N)CSSC[C@@H](C(=O)NCC(=O)O)NC(=O)[C@H](CCCNC(=N)N)NC(=O)CNC(=O)[C@@H]2CCCN2C1=O [SEQ ID NO:15, CKSIPGRCG] (H-CKSIPGRCG-OH; disulfide 1-8; N-terminus and C-terminus assumed)
MIC on M leuteus (Micrococcus luteus; 24 h): >75 µM
anti-microbial activity (in words) [2]: show no activity

GFGSPNNYQS [SEQ ID NO:8, GFGSPNNYQS]
MIC on M leuteus (Micrococcus luteus; 24 h): >75 µM
